Data from patent publication US20170050961A1, “IMIDAZO[1,2-A]PYRIDINES AS SOLUBLE GUANYLATE CYCLASE STIMULATORS FOR THE TREATMENT OF CARDIOVASCULAR DISEASES” (BAYER PHARMA AKTIENGESELLSCHAFT, priority 2014, published 2017).

Biological target: T1, recombinant guanylate cyclase reporter cell line (Rattus norvegicus, UniProt P19686+P20595)
T1 construct: expressed in transfected cells
T1 sequence (P19686 1-690): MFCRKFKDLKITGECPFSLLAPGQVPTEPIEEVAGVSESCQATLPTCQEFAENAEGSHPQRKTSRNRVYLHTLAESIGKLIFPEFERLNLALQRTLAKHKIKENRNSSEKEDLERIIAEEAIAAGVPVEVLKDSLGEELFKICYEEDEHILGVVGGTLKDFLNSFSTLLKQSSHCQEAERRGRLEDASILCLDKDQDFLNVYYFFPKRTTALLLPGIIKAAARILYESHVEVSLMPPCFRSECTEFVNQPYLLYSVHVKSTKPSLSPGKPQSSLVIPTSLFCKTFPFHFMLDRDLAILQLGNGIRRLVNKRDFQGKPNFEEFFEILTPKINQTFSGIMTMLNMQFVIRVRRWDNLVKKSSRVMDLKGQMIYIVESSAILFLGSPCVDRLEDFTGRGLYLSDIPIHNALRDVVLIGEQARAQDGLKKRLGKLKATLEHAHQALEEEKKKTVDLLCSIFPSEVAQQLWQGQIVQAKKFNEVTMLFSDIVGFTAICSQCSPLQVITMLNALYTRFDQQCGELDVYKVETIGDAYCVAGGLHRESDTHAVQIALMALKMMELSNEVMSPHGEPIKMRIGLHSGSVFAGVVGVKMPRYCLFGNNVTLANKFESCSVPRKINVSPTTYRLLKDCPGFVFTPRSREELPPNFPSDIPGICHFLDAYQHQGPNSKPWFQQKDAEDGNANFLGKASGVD
T1 sequence (P20595 1-619): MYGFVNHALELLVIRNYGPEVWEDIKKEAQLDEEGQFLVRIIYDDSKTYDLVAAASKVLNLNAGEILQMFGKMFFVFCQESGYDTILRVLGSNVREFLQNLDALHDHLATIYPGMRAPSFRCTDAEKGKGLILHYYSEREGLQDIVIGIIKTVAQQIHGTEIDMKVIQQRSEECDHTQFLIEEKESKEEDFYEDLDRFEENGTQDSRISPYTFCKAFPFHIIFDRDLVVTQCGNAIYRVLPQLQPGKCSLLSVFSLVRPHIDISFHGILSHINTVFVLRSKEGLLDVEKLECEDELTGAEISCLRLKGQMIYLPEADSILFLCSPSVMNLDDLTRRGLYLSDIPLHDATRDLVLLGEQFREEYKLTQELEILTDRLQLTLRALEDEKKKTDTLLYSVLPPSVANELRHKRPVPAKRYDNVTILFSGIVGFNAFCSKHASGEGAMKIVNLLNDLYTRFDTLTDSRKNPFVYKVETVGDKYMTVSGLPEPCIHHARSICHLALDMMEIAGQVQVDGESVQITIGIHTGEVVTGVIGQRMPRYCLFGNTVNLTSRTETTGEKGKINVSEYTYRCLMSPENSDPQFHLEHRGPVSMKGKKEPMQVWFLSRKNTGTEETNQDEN
Assay: Effect on a recombinant guanylate cyclase reporter cell line
Type: cell-based
Conditions: MEC=minimum effective concentration; in some cases as mean values for individual determinations
Procedure: B-2. Effect on a Recombinant Guanylate Cyclase Reporter Cell Line
The cellular activity of the compounds of the invention is determined using a recombinant guanylate cyclase reporter cell line, as described in F. Wunder et al., Anal Biochem. 339, 104-112 (2005).
Representative MEC values (MEC=minimum effective concentration) for the compounds of the invention are shown in the table below (in some cases as mean values for individual determinations): […]

MEC [µM] | SMILES
0.07 | CCC(C)(N)CNC(=O)c1c(Cl)nc2c(OCc3c(F)cccc3F)cc(C)cn12 (racemic) [Example 20]
0.3 | Cc1cc(OCc2ncccc2F)c2nc(C)c(C(=O)NCC(C)(N)CCC(F)(F)F)n2c1 (single isomer, unassigned; enantiomer b) [Example 9, ent-N-(2-Amino-5,5,5-trifluoro-2-methylpentyl)-8-[(3-fluoropyridin-2-yl)methoxy]-2,6-dimethylimidazo[1,2-a]pyridine-3-carboxamide (enantiomer B)]
2.0 | Cc1cc(OCc2c(F)cccc2F)c2nc(C(C)C)c(C(=O)NCC(C)(N)CCC(F)(F)F)n2c1 (single isomer, unassigned; enantiomer b) [Example 18, ent-N-(2-Amino-5,5,5-trifluoro-2-methylpentyl)-8-[(2,6-difluorobenzyl)oxy]-2-isopropyl-6-methylimidazo[1,2-a]pyridine-3-carboxamide (enantiomer B)]
10 | CCC(C)(N)CNC(=O)c1c(COC)nc2c(OCc3c(F)cccc3F)cc(C)cn12.Cl (racemic) [Example 8, rac-N-(2-Amino-2-methylbutyl)-8-[(2,6-difluorobenzyl)oxy]-2-(methoxymethyl)-6-methylimidazo[1,2-a]pyridine-3-carboxamide hydrochloride]
0.3 | CCCC(C)(N)CNC(=O)c1c(Cl)nc2c(OCc3c(F)cccc3F)cc(C)cn12 (single isomer, unassigned; enantiomer b) [Example 25, ent-N-(2-Amino-2-methylpentyl)-2-chloro-8-[(2,6-difluorobenzyl)oxy]-6-methylimidazo[1,2-a]pyridine-3-carboxamide (enantiomer B)]
3.0 | CCC(C)(N)CNC(=O)c1c(C)nc2c(OCc3c(F)cccc3F)cc(-n3cccn3)cn12.Cl (racemic) [Example 3, rac-N-(2-Amino-2-methylbutyl)-8-[(2,6-difluorobenzyl)oxy]-2-methyl-6-(1H-pyrazol-1-yl)imidazo[1,2-a]pyridine-3-carboxamide hydrochloride]
0.1 | CCCC(C)(N)CNC(=O)c1c(Cl)nc2c(OCc3c(F)cccc3F)cc(C)cn12 (racemic) [Example 23, rac-N-(2-Amino-2-methylpentyl)-2-chloro-8-[(2,6-difluorobenzyl)oxy]-6-methylmidazo[1,2-a]pyridine-3-carboxamide]

SMILES | MEC [µM]
Cc1cc(OCc2c(F)cccc2F)c2nc(C)c(C(=O)NCC(C)(N)CC[Si](C)(C)C)n2c1 (single isomer, unassigned; enantiomer b) [Example 14, ent-N-[2-Amino-2-methyl-4-(trimethylsilyl)butyl]-8-[(2,6-difluorobenzyl)oxy]-2,6-dimethylimidazo[1,2-a]pyridine-3-carboxamide (enantiomer B)] | 0.2
Cc1cc(OCc2c(F)cccc2F)c2nc(C)c(C(=O)NCC(C)(N)CCC[Si](C)(C)C)n2c1 (single isomer, unassigned; enantiomer a) [Example 15, ent-N-[2-Amino-2-methyl-5-(trimethylsilyl)pentyl]-8-[(2,6-difluorobenzyl)oxy]-2,6-dimethylimidazo[1,2-a]pyridine-3-carboxamide (enantiomer A)] | 0.3
